Reference: patent publication US10081662B2, “Modified relaxin B chain peptides” (The Florey Institute of Neuroscience and Mental Health, priority 2014, dated 2018)
Peptide text beside a SMILES is read from it.

Tests used:
[1] = molecular target: T1, fusion protein comprising the extracellular domain of RXFP1 and the transmembrane domain of CD8 (7BP cells) (Homo sapiens, UniProt Q9HBX9); assay: Eu-labelled H2 relaxin competition binding to 7BP cells; details: 7BP cells
T1 construct: the extracellular domain of RXFP1 and the transmembrane domain of CD8; expressed in transfected cells
T1 sequence (Q9HBX9 1-409 limits assumed): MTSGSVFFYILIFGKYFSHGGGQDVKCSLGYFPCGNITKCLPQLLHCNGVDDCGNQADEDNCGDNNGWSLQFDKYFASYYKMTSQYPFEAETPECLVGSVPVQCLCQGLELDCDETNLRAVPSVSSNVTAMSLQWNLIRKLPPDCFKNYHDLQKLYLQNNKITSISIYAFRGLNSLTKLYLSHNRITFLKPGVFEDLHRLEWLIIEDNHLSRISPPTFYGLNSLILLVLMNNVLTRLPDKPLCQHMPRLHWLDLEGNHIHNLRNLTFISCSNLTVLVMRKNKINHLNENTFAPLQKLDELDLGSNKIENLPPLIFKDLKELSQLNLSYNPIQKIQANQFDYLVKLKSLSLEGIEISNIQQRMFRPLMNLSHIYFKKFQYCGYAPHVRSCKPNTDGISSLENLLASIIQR

RXFP2 = molecular target: T2, RXFP2 (Homo sapiens, UniProt Q8WXD0); assay: cAMP reporter gene assay in HEK-293T cells transfected with RXFP2; type: cell-based; details: RXFP1- vs RXFP2-expressing HEK-293T cells; FIG. 3
T2 construct: expressed in transfected cells; host or cells: HEK-293T
Protocol: The ability of the relaxin-2 B chain peptide derivatives generated in Example 1 to stimulate cAMP response was also evaluated, using a cAMP reporter gene assay as described previously (Scott et al., 2006, J Biol Chem. 281, 34942-34954). HEK-293T cells co-transfected with either RXFP1 or RXFP2, or 7BP cells, and a pCRE β-galactosidase reporter plasmid were plated in 96-well plates. After 24 hours, the co-transfected cells were incubated with increasing concentrations of peptides in parallel to 10 nM of H2 relaxin or INSL3 for RXFP1- or RXFP2-transfected cells respectively. The amount of cAMP-driven β-galactosidase expression in each well was assessed with a colorimetric assay measuring absorbance at 570 nm on a microplate spectrophotometer. Ligand-induced cAMP stimulation was expressed as a percentage of maximal response of H2 relaxin or INSL3 for RXFP1 and RXFP2 cells respectively. Each data point was measured in triplicate and each experiment conducted independently at least three separate times. Statistical differences in pEC50 values were analyzed using one-way ANOVA coupled to Newman Keul's multiple comparison test for multiple group comparisons in GraphPad Prism 6.

[2] = system: rat model of myocardial infarction; assay: Rat model of myocardial infarction-induced heart failure; type: in vivo; details: vs vehicle
Protocol: Adult male Sprague-Dawley rats weighing 250-320 g were obtained from Animal Resources Centre, Perth, Wash., Australia. The rats were group housed in a constant temperature of 22±1° C. and a relative humidity of 50-60% under a controlled light-dark cycle of 12 hours. Rats were given access to standard laboratory rat chow and drinking water ad libitum.
Heart failure was induced as previously described (Ruchaya et al., 2014, Exp Physiol 99, 111-122). Breifly, to induce heart failure, rats were anaesthetised with an intramuscular injection of ketamine (60 mg/kg) and medetomide hydrochloride ([…]). A left sided thoracotomy through an opening between the fourth and fifth rib was performed, the heart was exteriorised and the left anterior descending coronary artery was ligated. Anaesthesia was reversed with antipamezole hydrocholide (1 mg/kg). Penicillin (1000 U) and buprenorphine (0.05 mg/kg) was administered to aid post-operative recovery. Animals were left to recover from the surgery under a heating source. Rats were individually housed after the surgery.
Eight weeks after myocardial infarction surgery, rats were randomly assigned to 3 groups (vehicle, H2 and B7-33), re-anaesthetised (2-3% isoflurane) and an osmotic mini-pump (model 2ML4, Alzet, Cupertino, Calif.) implanted intraperitoneally. Vehicle (saline), native H2 relaxin (0.5 mg/kg/day) or B7-33 C11.23S (0.5 mg/kg/day) was continuously administered for 28 days. At the conclusion of treatment, rats were anaesthetized (sodium pentobarbitone, 60 mg/kg i.p.) and the left ventricular end-diastolic pressure determined prior to decapitation and removal of the heart for histological analysis.

RXFP1 = molecular target: T3, RXFP1 (Homo sapiens, UniProt Q9HBX9); assay: cAMP reporter gene assay (pCRE β-galactosidase) in HEK-293T cells transfected with RXFP1; type: cell-based; details: FIG. 3A, ERK data not shown
T3 construct: expressed in transfected cells; host or cells: HEK-293T
T3 sequence (Q9HBX9 1-757): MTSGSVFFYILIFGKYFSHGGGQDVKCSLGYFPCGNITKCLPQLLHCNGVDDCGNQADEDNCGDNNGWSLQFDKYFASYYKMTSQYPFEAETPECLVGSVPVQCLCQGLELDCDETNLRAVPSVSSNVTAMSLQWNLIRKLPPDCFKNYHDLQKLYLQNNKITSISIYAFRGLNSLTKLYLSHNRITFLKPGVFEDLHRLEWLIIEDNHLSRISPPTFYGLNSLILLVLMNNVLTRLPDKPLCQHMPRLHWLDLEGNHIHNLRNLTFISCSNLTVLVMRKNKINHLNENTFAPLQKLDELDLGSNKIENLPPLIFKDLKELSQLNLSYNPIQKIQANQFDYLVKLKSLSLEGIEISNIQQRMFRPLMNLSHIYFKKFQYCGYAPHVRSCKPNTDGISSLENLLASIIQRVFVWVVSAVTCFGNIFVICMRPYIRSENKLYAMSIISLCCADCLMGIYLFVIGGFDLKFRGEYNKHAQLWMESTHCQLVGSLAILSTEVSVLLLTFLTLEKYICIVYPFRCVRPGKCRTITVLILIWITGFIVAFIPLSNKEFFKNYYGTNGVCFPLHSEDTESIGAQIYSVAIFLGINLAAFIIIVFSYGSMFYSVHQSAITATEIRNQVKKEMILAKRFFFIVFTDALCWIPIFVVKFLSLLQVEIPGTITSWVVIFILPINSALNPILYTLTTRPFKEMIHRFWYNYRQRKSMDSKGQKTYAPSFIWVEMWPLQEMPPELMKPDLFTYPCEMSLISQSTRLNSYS

T2 sequence (Q8WXD0 whole entry): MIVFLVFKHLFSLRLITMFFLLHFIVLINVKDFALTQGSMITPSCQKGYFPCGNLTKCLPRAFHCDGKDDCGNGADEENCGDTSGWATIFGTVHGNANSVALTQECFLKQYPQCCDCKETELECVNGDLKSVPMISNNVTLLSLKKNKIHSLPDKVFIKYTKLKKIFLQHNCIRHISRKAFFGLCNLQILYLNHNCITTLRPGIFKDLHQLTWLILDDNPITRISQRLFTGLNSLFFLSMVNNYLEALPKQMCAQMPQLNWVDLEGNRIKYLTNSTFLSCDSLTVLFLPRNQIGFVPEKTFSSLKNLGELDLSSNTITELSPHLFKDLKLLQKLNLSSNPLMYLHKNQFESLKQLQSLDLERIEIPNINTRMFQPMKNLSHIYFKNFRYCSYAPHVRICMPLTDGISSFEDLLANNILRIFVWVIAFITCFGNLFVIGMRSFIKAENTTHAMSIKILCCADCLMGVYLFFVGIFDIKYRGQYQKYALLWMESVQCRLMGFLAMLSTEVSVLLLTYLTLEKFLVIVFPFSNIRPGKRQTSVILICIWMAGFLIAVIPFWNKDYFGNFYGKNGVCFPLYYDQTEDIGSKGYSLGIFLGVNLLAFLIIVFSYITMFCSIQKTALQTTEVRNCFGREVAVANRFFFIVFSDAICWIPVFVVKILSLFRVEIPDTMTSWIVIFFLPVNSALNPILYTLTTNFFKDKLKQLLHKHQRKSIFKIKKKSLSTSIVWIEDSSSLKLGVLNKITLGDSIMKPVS

**Q.** What does the source list for CC[C@H](C)[C@H](NC(=O)[C@H](C)NC(=O)[C@@H](NC(=O)[C@H](CCC(N)=O)NC(=O)[C@H](C)NC(=O)[C@H](CCCNC(=N)N)NC(=O)[C@@H](NC(=O)[C@H](CC(C)C)NC(=O)[C@H](CCC(=O)O)NC(=O)[C@H](CCCNC(=N)N)NC(=O)CNC(=O)[C@H](CO)NC(=O)[C@H](CC(C)C)NC(=O)[C@H](CCCCN)NC(=O)[C@@H](NC(=O)[C@@H](N)C(C)C)[C@@H](C)CC)C(C)C)[C@@H](C)CC)C(=O)N[C@@H](CO)C(=O)NCC(=O)N[C@@H](CCSC)C(=O)N[C@@H](CO)C(=O)N[C@H](C(=O)N[C@@H](Cc1c[nH]c2ccccc12)C(=O)N[C@@H](CO)C(=O)N[C@@H](CCCCN)C(=O)N[C@@H](CCCNC(=N)N)C(=O)N[C@@H](CO)C(=O)N[C@@H](CC(C)C)C(N)=O)[C@@H](C)O [B7-33 C11.23S] (H-VIKLSGRELVRAQIAISGMSTWSKRSL-NH2)?
**A.** Ki ([1]; competition with Eu-labelled H2 relaxin, n ≥ 3, read-out: 7BP Eu-H2 pKi (converted)): 0.0224 µM; Binding to 7BP cells (in words) ([1]; lower affinity than H2 relaxin, FIG. 2B): strongly bind to 7BP cells; Selectivity of cAMP stimulation, RXFP1 over RXFP2 (RXFP2): selective at RXFP1 over RXFP2; Percentage of collagen in the interstitial area of the left ventricle ([2]; 0.5 mg/kg/day i.p. mini-pump for 28 days from 8 weeks after MI): significant reduction; Left ventricular end-diastolic pressure (LVEDP) ([2]; 12 weeks after myocardial infarction): reduced; Activation of cAMP and ERK signalling pathways in HEK-RXFP1 cells (in words) (RXFP1): full agonist, but with poor potency
